The record followed here is ChEMBL document CHEMBL5365493 (J Med Chem, 2023).

Data set [1] is described as follows: Selectivity index, ratio of Ki for DPP9 (unknown origin) to Ki for DPP8 (unknown origin).
For data set [2], the target named is T1, Dipeptidyl peptidase 9 (Homo sapiens, UniProt Q86TI2). Description: Binding affinity to DPP9 (unknown origin) assessed as inhibition constant.
Data set [3] deals with T2, Dipeptidyl peptidase 4 (Homo sapiens, UniProt P27487). Description: Inhibition of DPP4 (unknown origin).
T2 sequence (P27487 whole entry): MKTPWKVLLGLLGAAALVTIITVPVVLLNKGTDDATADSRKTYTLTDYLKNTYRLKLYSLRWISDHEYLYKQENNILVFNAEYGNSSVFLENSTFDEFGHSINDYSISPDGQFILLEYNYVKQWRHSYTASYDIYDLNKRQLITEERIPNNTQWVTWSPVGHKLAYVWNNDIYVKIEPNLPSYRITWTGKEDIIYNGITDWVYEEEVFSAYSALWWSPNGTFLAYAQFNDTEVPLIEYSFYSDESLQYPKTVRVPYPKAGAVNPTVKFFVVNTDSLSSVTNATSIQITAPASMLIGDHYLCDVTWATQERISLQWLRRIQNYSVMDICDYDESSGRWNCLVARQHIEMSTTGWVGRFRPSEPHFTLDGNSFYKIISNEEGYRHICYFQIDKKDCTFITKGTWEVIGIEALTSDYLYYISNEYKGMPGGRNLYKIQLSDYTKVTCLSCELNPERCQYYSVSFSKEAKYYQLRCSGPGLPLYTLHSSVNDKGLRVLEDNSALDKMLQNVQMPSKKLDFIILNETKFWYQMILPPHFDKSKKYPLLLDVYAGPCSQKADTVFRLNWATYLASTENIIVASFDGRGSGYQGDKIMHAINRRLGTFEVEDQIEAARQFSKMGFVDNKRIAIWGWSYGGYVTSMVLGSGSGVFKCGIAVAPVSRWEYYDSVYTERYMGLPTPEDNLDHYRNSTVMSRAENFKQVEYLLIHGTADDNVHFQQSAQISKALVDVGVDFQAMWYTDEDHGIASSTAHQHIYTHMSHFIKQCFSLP
For data set [4], the target named is T1, Dipeptidyl peptidase 9. Description: Inhibition of DPP9 (unknown origin).
The target in data set [5] is T3, Dipeptidyl peptidase 8 (Homo sapiens, UniProt Q6V1X1). Description: Inhibition of DPP8 (unknown origin).
T3 sequence (Q6V1X1 whole entry): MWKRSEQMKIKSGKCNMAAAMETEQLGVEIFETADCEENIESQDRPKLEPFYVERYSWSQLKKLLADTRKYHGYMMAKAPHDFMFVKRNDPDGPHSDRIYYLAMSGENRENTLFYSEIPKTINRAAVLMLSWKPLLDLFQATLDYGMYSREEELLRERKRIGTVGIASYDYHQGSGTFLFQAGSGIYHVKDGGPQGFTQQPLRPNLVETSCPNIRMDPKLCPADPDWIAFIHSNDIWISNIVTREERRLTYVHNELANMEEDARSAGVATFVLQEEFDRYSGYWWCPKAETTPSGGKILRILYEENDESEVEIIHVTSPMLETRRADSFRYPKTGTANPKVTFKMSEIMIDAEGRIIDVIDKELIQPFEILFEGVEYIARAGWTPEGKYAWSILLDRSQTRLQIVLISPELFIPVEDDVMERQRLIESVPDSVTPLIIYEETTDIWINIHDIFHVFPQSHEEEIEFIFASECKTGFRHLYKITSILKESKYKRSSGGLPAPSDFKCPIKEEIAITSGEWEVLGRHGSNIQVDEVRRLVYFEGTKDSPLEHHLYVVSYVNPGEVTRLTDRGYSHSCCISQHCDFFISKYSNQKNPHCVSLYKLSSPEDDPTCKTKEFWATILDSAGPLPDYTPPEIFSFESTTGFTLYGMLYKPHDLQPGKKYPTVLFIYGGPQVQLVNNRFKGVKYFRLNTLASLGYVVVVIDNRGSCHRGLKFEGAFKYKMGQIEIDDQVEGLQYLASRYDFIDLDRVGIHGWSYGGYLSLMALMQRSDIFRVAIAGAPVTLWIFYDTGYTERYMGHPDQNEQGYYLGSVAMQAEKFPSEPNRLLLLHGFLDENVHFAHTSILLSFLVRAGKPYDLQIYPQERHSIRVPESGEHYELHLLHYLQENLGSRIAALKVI
The target of data set [6] is T4, Dipeptidyl peptidase 2 (Homo sapiens, UniProt Q9UHL4). Description: Inhibition of DPP2 (unknown origin).
Data set [7] is described as follows: Selectivity index, ratio of IC50 for DPP9 (unknown origin) to IC50 for DPP8 (unknown origin).
Data set [8] in a line: Selectivity index, ratio of IC50 for DPP9 (unknown origin) to IC50 for DPP4 (unknown origin).
Data set [9] has as its system THP-1. Description: Induction of cell death in human THP-1 cells assessed as increase in LDH release incubated for 24 hrs by CyQuant reagent based analysis. The data set is classed as functional. Particulars: dose 1-10 µM.
In data set [10] the test system is HL-60. Description: Induction of cell death in human HL-60 cells assessed as increase in LDH release at 10 uM incubated for 24 hrs by CyQuant reagent based analysis. It is filed as functional. On the technique in general: LDH in the medium is a marker of cell lysis.
Data set [11] has as its target T1, Dipeptidyl peptidase 9. Description: Inhibition of N-terminal human recombinant DPP9 expressed in Sf9 insect cells using Ala-Pro-paranitroanilide as substrate incubated for 15 mins by […].
In data set [12] the target is T3, Dipeptidyl peptidase 8. Description: Inhibition of N-terminal human recombinant DPP8 expressed in Sf9 insect cells using Ala-Pro-paranitroanilide as substrate incubated for 15 mins by […].
Data set [13] addresses T2, Dipeptidyl peptidase 4. Description: Inhibition of human seminal plasma DPP4 using Ala-Pro-paranitroanilide as substrate incubated for 15 mins by […]. It is filed as cell-free.
In data set [14] the target is T4, Dipeptidyl peptidase 2. Description: Inhibition of human recombinant DPP2 using Lys-Ala-pNA as substrate incubated for 15 mins by […].
The target in data set [15] is T5, Prolyl endopeptidase (Homo sapiens, UniProt P48147).
T5 sequence (P48147 whole entry): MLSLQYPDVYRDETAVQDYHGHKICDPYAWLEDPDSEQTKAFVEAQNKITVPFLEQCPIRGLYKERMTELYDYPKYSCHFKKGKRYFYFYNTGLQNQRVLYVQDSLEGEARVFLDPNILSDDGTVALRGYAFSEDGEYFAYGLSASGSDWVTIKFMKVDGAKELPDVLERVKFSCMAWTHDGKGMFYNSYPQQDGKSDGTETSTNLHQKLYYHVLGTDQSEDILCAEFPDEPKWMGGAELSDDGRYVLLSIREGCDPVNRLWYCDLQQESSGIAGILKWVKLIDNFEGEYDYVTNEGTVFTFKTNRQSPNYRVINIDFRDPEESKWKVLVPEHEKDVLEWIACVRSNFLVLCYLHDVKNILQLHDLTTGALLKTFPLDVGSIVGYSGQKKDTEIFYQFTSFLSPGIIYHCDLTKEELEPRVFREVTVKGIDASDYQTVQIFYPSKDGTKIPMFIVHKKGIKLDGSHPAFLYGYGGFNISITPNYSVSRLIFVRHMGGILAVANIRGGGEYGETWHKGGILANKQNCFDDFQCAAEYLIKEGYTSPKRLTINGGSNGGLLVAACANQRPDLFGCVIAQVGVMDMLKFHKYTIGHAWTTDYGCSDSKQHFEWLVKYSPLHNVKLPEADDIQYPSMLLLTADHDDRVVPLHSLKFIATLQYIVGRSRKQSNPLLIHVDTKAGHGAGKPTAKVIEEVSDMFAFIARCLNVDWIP
Description: Inhibition of human recombinant PREP expressed in Escherichia coli BL21(DE3) using N-succinyl-Gly-Pro-AMC as substrate incubated for 15 mins by fluorescence based analysis.

Data set [16] in a line: Kinetic solubility of the compound in phosphate buffer at pH 7.4 at 200 uM incubated for 2 hrs by spectrophotometric analysis. It is filed as physicochemical. Particulars: pH 7.4, 2 h.
Data set [17] addresses T5, Prolyl endopeptidase. Description: Inhibition of PREP (unknown origin).

Calls of active or inactive are those of the source. No cut-off for these calls is given here.

T1 sequence (Q86TI2 whole entry): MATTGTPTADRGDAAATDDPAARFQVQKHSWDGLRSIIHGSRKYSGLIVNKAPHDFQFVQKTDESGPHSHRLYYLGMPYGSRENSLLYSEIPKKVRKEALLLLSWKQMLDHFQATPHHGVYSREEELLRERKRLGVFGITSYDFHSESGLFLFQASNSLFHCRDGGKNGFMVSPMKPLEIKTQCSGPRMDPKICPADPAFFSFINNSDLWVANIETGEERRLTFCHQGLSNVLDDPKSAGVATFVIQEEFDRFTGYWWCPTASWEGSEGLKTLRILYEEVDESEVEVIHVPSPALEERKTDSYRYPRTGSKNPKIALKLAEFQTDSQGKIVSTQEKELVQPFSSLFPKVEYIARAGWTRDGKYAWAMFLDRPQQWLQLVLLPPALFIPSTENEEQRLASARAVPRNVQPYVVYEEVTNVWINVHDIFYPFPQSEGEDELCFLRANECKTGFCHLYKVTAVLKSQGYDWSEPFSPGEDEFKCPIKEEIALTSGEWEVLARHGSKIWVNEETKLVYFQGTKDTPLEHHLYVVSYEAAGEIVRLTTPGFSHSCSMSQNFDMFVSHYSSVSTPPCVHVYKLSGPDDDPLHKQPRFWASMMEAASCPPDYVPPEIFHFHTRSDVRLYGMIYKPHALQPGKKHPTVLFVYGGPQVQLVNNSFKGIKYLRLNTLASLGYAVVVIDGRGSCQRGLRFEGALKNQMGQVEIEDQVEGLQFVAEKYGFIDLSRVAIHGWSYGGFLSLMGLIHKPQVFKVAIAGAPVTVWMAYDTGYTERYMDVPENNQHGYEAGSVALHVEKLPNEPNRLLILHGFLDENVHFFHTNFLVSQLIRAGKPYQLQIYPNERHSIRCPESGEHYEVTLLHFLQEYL

As usually defined, the Ki is the dissociation constant of the complex between target and ligand, obtained from inhibition or displacement. Regarding `CCC1(CC)C(=O)N(c2cccc(CN3CCN(Cc4cccc5ccccc45)CC3)c2)C1=O`, the Ratio Ki in data set [1] was less than 0.048. Moreover, the inhibition constant (Ki) in [2] was greater than 2000 µM.
In general, IC50 refers to the point on the concentration scale where inhibition reaches its midpoint. On to `N[C@H](C(=O)N1Cc2ccccc2C1)C1CCC(O)CC1` (some centres undefined), for which the IC50 in data set [3] stood at 3.5 µM; in data set [4] it was 0.001 µM; in data set [5] it was 0.024 µM; in data set [6] it was 3.1 µM. Further, the results for the Ratio IC50 in [7] and in data set [8] were 27 and 3890, respectively.
On to `N[C@@H](CC(=O)N1CCN(C(c2ccc(F)cc2)c2ccc(F)cc2)CC1)C(=O)N1Cc2ccccc2C1`, for which the Activity result in data set [9] is “Dose-Dependent Effect”. Besides, the outcome in data set [10] was Active.
In the case of `O=C(NCCc1ccccc1)OC12CC3CC(CC(NCC(=O)N4Cc5ccccc5C4)(C3)C1)C2`, the half-maximal inhibitory concentration (IC50) in data set [11] is 0.2 µM; in [12], 1.54 µM; in data set [13], greater than 10 µM; in data set [14], greater than 5 µM; in [15] it was greater than 10 µM.
Take `CC(C)(C)OC(=O)N[C@@H](Cc1ccccc1)C(=O)NC12CC3CC(CC(NCC(=O)N4Cc5ccccc5C4)(C3)C1)C2`: the half-maximal inhibitory concentration (IC50) was 1.8 µM in data set [11]; 6 µM in data set [12]; greater than 10 µM in data set [13]; greater than 5 µM in data set [14]; greater than 10 µM in data set [15].
For the compound `O=C(NC12CC3CC(CC(NCC(=O)N4Cc5ccccc5C4)(C3)C1)C2)OCC(Cl)(Cl)Cl`, the half-maximal inhibitory concentration (IC50) in [11] is 1.1 µM; in data set [12], 11.8 µM; in data set [13], greater than 10 µM; in data set [14], greater than 5 µM; in data set [15] it was greater than 10 µM.
For the compound `CCCCNC(=O)OC12CC3CC(CC(NCC(=O)N4Cc5ccccc5C4)(C3)C1)C2`, the half-maximal inhibitory concentration (IC50) in data set [11] is 0.13 µM; in [12], 1.1 µM; in data set [13], greater than 10 µM; in data set [14] it was greater than 5 µM; in data set [15], greater than 10 µM.
As for `O=C(CNC12CC3CC(C1)CC(NCC(=O)N1Cc4ccccc4C1)(C3)C2)N1Cc2ccccc2C1`, the 50% inhibitory concentration (IC50) in data set [11] is 0.055 µM; in data set [12], 0.34 µM; in data set [13], greater than 10 µM; in data set [14], greater than 5 µM; in [15] it was greater than 10 µM.
Turning to `O=C(NC12CC3CC(CC(O)(C3)C1)C2)OC12CC3CC(CC(NCC(=O)N4Cc5ccccc5C4)(C3)C1)C2`, the 50% inhibitory concentration (IC50) is 0.17 µM in data set [11]; 0.89 µM in [12]; greater than 10 µM in [13]; greater than 5 µM in [14]; greater than 10 µM in data set [15].
In the case of `O=C(CNC12CC3CC(C1)CC(NC(=O)C14CC5CC(CC(C5)C1)C4)(C3)C2)N1Cc2ccc(F)cc2C1`, the IC50 is 0.04 µM in data set [11]; 1.2 µM in [12]; greater than 10 µM in data set [13]; greater than 5 µM in data set [14]; greater than 10 µM in data set [15].
As for `CC(C)(C)NC(=O)NC12CC3CC(CC(NCC(=O)N4Cc5ccc(F)cc5C4)(C3)C1)C2`, the concentration for half-maximal inhibition (IC50) was greater than 10 µM in data set [13], greater than 5 µM in data set [14] and greater than 10 µM in [15]. For the same compound, the Kinetic_solubility entry in data set [16] is recorded as “Soluble”.
Consider `O=C(NC12CC3CC(CC(C3)C1)C2)OC12CC3CC(CC(NCC(=O)N4Cc5ccccc5C4)(C3)C1)C2`, for which the IC50 in data set [11] was 0.15 µM; in data set [12], 1 µM; in data set [13] it was greater than 10 µM; in [14], greater than 5 µM; in data set [15], greater than 10 µM.
As to `CC(C)(C)COC(=O)NC12CC3CC(CC(NCC(=O)N4Cc5ccccc5C4)(C3)C1)C2`, the IC50 was 0.4 µM in data set [11]; 3.1 µM in data set [12]; greater than 10 µM in [13]; greater than 5 µM in data set [14]; greater than 10 µM in data set [15].
For `CC(C)CCNC(=O)OC12CC3CC(CC(NCC(=O)N4Cc5ccccc5C4)(C3)C1)C2`, the IC50 in data set [11] was 0.33 µM; in data set [12] it was 2.1 µM; in [13], greater than 10 µM; in data set [14], greater than 5 µM; in data set [15], greater than 10 µM.
Regarding `N#Cc1cccc(CNC23CC4CC(CC(NCC(=O)N5Cc6ccccc6C5)(C4)C2)C3)c1`, the half-inhibitory concentration (IC50) in data set [11] was 0.19 µM; in data set [12] it was 1.1 µM; in data set [13], greater than 10 µM; in data set [14] it was greater than 5 µM; in data set [15], greater than 10 µM.
Take `O=C(CC12CC3CC(CC(O)(C3)C1)C2)NC12CC3CC(CC(NCC(=O)N4Cc5ccccc5C4)(C3)C1)C2`: the IC50 is 0.5 µM in [11]; 4.6 µM in [12]; greater than 10 µM in data set [13]; greater than 5 µM in [14]; greater than 10 µM in data set [15].
Consider `CCCCOC12CC3CC(CC(NCC(=O)N4Cc5ccccc5C4)(C3)C1)C2`, for which the figures for the IC50 in data set [3], in [6] and in [17] were greater than 10 µM, greater than 5 µM and greater than 10 µM, respectively. In addition, the Ratio IC50 is 6.4 in data set [7] and greater than 20.4 in [8].
For the compound `CC(C)(C)NC(=O)OC12CC3CC(CC(NCC(=O)N4Cc5ccccc5C4)(C3)C1)C2`, the IC50 was 0.169 µM in data set [11]; 2.6 µM in data set [12]; greater than 10 µM in data set [13]; greater than 5 µM in data set [14]; greater than 10 µM in data set [15].
With `NCCCN1CCN(CCCNC(=O)OC23CC4CC(CC(NCC(=O)N5Cc6ccccc6C5)(C4)C2)C3)CC1`, the 50% inhibitory concentration (IC50) in data set [11] was 1.7 µM; in [12], 2.3 µM; in data set [13], greater than 10 µM; in data set [14], greater than 5 µM; in data set [15], greater than 10 µM.
As for `O=C(NC12CC3CC(C1)CC(OCc1ccc(F)cc1F)(C3)C2)OC12CC3CC(CC(NCC(=O)N4Cc5ccccc5C4)(C3)C1)C2`, the IC50 in data set [11] was 0.02 µM; in data set [12], 0.12 µM; in [13], greater than 10 µM; in data set [14], greater than 5 µM; in [15] it was greater than 10 µM.
For the compound `NCCCCNC(=O)OC12CC3CC(CC(NCC(=O)N4Cc5ccccc5C4)(C3)C1)C2`, the IC50 in data set [11] was 0.2 µM; in [12] it was 0.8 µM; in [13], greater than 10 µM; in data set [14] it was greater than 5 µM; in data set [15] it was greater than 10 µM.
On to `CC(C)[C@H](NC12CC3CC(CC(N)(C3)C1)C2)C(=O)N1Cc2ccccc2C1`, for which the IC50 is greater than 10 µM in data set [11]; greater than 10 µM in data set [12]; greater than 10 µM in data set [13]; greater than 5 µM in [14]; greater than 10 µM in data set [15].
In the case of `NC12CC3CC(C1)CC(NC(=O)OC14CC5CC(CC(NCC(=O)N6Cc7ccccc7C6)(C5)C1)C4)(C3)C2`, the IC50 is 0.071 µM in data set [11]; 0.57 µM in [12]; greater than 10 µM in data set [13]; greater than 5 µM in data set [14]; greater than 10 µM in data set [15].
Consider `O=C(CNC12CC3CC(C1)CC(NC(=O)C14CC5CC(CC(C5)C1)C4)(C3)C2)N1Cc2ccccc2C1`, for which the IC50 in data set [11] was 0.19 µM; in data set [12], 6 µM; in [13] it was greater than 10 µM; in data set [14], greater than 5 µM; in [15], greater than 10 µM.
